From PubChem BioAssay AID463074 (Broad Institute, 2010)
Active and inactive are the calls of the source.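 The calls were made as follows: active = AC50 no more than tenfold above the top dose tested, or full inhibition at every dose with a flat fit (cut at about 19 µM in these data); inconclusive = flat curve fit with inhibition between 30% and 70%, or poor fit; inactive = AC50 more than tenfold above the top dose tested.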

tested on: HMLE_sh_eGFP viability, CellTiter-Glo luminescence, 72 h; experiment: cytotoxicity in HMLE control line with eGFP shRNA, dose response, counter-screen for HMLE_sh_ECad selective toxicity project, cell-based, HMLE_sh_eGFP, luminescence (AID 463074);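 also: counterscreen control line to flag general toxicity for the HMLE_sh_ECad screen; potency for loss of viability as luminescence drops below DMSO wells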

Point of comparison: `CCCCCCc1cc2cc(S(=O)(=O)c3ccc(C)cc3)c(=O)oc2cc1O`, AC50 2.43 µM. Against it:
- O=C(COc1ccc(-c2ccccc2)cc1)N/N=C/c1cc(O)ccc1Br — 2.3-fold higher, 5.68 µM
- CCCC(c1nnnn1CC1CCCO1)N1CCN(c2cc(Cl)ccc2C)CC1 (stereo not given) — within 1.5-fold, 2.78 µM
- O=S(=O)(c1ccc(Cl)cc1)N1CCC(n2cnc3cc(C(F)(F)F)ccc32)CC1 — 1.6-fold higher, 4 µM
- CCN(CC)c1ccc(S(=O)(=O)Nc2cc(Cl)ccc2Cl)cc1NC(=S)NC(=O)C1CCCC1 — within 1.5-fold, 2.06 µM
- Cn1nnnc1Sc1ncnc2scc(Br)c12 — 2.8-fold higher, 6.78 µM
- Cc1cccc(N/N=C/c2ccccc2O)c1 — 7.7-fold higher, 18.6 µM
- CCNC(=S)N/N=C/c1cn(Cc2ccc(F)cc2)c2ccccc12 — 4.5-fold higher, 10.9 µM
- COc1cc(CN2CCN(c3cccc(Cl)c3)CC2)cc(OC)c1OC — within 1.5-fold, 2.58 µM
- CC(=O)Nc1ccc(N=Cc2c(O)c(C(=O)Nc3ccccc3)cc3ccccc23)cc1 — 1.7-fold higher, 4.21 µM
- Cc1cccc(NC(=O)CCC(=O)N/N=C/c2ccc(O)cc2O)c1 — 4.4-fold higher, 10.6 µM
- CC[C@@H]1CC=C[C@H]2[C@H]1C(=O)N(Cc1ccccc1)[C@H]2c1ccc(OC)c(Cl)c1 — 2.9-fold higher, 7.13 µM
- CC1(C)C=Cc2c(ccc3c2OC[C@@H](c2ccc(O)cc2O)C3)O1 — 3-fold higher, 7.27 µM
- C=CCn1c(CNc2ccc(C)cc2)nnc1SCC(=O)N/N=C/c1ccc(O)cc1O — within 1.5-fold, 2.97 µM
- CCCCCCOc1ccc(OC(=O)c2cccnc2)cc1 — 4.2-fold higher, 10.1 µM
- CCOC(=O)c1nn(-c2ccc(F)cc2)c(-c2ccccc2)c1C(=O)c1ccccc1 — 4.9-fold higher, 11.8 µM
- Cn1c(N)c(C(=O)COC(=O)c2ccccc2C(=O)c2ccc(Cl)c([N+](=O)[O-])c2)c(=O)n(C)c1=O — within 1.5-fold, 3.61 µM
- Cc1cccc(C(=O)NNC2=C(C(=O)C(F)(F)F)CCC2)c1O — 1.6-fold higher, 3.91 µM
- C=C(C)[C@@H]1CC[C@]2(C(=O)O)CC[C@]3(C)C(CCC4[C@@]5(C)CC[C@H](O)C(C)(C)C5CC[C@]43C)C12 (stereo not given in full) — 2.3-fold higher, 5.71 µM
- O=c1oc2ccccc2c(O)c1Cc1cc(Cl)c2cccnc2c1O — 2-fold higher, 4.9 µM
- Cc1ccc(NS(=O)(=O)c2ccc(Cl)c(NC(=S)NC(=O)C3CCCCC3)c2)cc1Cl — within 1.5-fold, 3.58 µM
- Cc1ccc(/C=N/Nc2cc(C)nc(NCc3ccccc3)n2)cc1 — 2.9-fold higher, 7.16 µM
- Oc1ccc(/C=C/c2nc(-c3ccccc3O)n(-c3ccccc3)n2)cc1 — 2.8-fold higher, 6.7 µM
- COc1ccc(C(=O)/C=C2/C(=O)Nc3ccccc32)cc1 — 2.8-fold higher, 6.73 µM
- CC1(C)CN(c2ccccc2)N(C(=O)c2ccc(F)cc2)C1=O — 2.3-fold higher, 5.6 µM
- COc1cc2nc(CN3CC=C(c4ccccc4)CC3)[nH]c(=O)c2cc1OC — within 1.5-fold, 3.39 µM
- O=C1NC(c2ccc(-c3ccccc3[N+](=O)[O-])o2)C(C(=O)c2ccc(Cl)cc2)C(O)(C(F)(F)F)N1 (stereo not given) — 5.7-fold higher, 13.8 µM
- Cc1ccc(OC/C(O)=C(\C#N)c2nc3ccccc3s2)cc1 — 2.8-fold higher, 6.81 µM
- O=C(Nc1cc(S(=O)(=O)Nc2ccc(Cl)cc2)ccc1N1CCCCC1)c1ccc(F)cc1Cl — 2.2-fold higher, 5.37 µM
- Cc1cccc(Nc2nc(-c3ccc(O)cc3O)cs2)n1 — 3.1-fold higher, 7.5 µM
- COCCNC(=O)c1c[nH]c2ccc(S(=O)(=O)N3CCc4ccccc43)cc2c1=O — 2.3-fold higher, 5.53 µM
- Clc1ccc(C(Cn2ccnc2)OCc2csc3c(Cl)cccc23)c(Cl)c1 (stereo not given) — within 1.5-fold, 3.16 µM
- COc1ccc(Nc2nc(-c3ccccc3O)nc3ccccc23)cc1 — 2-fold higher, 4.79 µM
- O=C(Nc1ccc(-c2csc(Nc3cccc(C(F)(F)F)c3)n2)cc1)c1cc([N+](=O)[O-])cc(C(F)(F)F)c1 — within 1.5-fold, 1.93 µM
- Cc1cccc(N(C)C(=O)c2cc3c(=O)[nH]c4ccc(C)cc4c3s2)c1 — within 1.5-fold, 2.52 µM
- CCC(C)n1c(O)c(/C=N/Nc2ccccc2)c(=O)[nH]c1=S (stereo not given) — within 1.5-fold, 3.58 µM
- O=C(Nc1ccc(Br)cn1)c1cccc(-c2cc3ccccc3oc2=O)c1 — 5.1-fold higher, 12.3 µM
- Cc1cccc(-c2nc(Nc3cccc(O)c3)c3ccccc3n2)c1 — 2.2-fold higher, 5.27 µM
- Cc1ccc(-c2cc(NC(=O)CCl)n(-c3ccccc3)n2)cc1 — 3-fold higher, 7.29 µM
- CCOC(=O)c1ccc(Nc2cc(C)nc(-c3ccccc3)n2)cc1 — 1.5-fold higher, 3.71 µM
- O=C(Cn1ncc(Cl)c(Cl)c1=O)NC(=O)NC1CCCCC1 — within 1.5-fold, 2.23 µM
- O=C(NCCCN1CCOCC1)c1ccc(CSc2ccc(Cl)cc2)cc1 — 3.2-fold higher, 7.77 µM
- O=C(/C=C/c1ccccc1[N+](=O)[O-])c1ccccc1Br — within 1.5-fold, 3.64 µM
- CCC1CSC(Nc2ccc(C(=O)/C=C/c3ccc(Br)cc3)cc2)=N1 (stereo not given) — 2.3-fold higher, 5.68 µM
- Cc1ccc2nc(-c3cccc(-c4cccc(Cl)c4)c3)c(NCc3ccccc3)n2c1 — within 1.5-fold, 3.17 µM
- COc1ccc(C)cc1NC(=O)CSc1nnc(COc2ccc(Cl)cc2)n1Cc1ccco1 — 3.4-fold higher, 8.28 µM
- Cc1ccc(-c2cc(C(=O)N/N=C/c3ccccc3O)n[nH]2)o1 — 4.2-fold higher, 10.2 µM
- COc1cccc(/C=N/NC(=O)c2[nH]c(C)c(C(=O)N/N=C/c3cccc(OC)c3O)c2C)c1O — 1.9-fold higher, 4.53 µM
- COc1ccc(CNCC(O)COc2ccc(C(C)(C)c3ccccc3)cc2)cc1 (stereo not given) — within 1.5-fold, 3.22 µM
- CC(C)C[C@H](NC(=O)c1nc[nH]c1C(=O)NC(c1ccccc1)c1ccccc1)C(=O)OC(C)(C)C — 1.5-fold higher, 3.67 µM
- CNC[C@H](CC1CCCCC1)NC[C@H](CO)NCCc1cccc(C(F)(F)F)c1 — 2.8-fold higher, 6.71 µM
- CCC/C=C(\CCC)C(NS(=O)(=O)c1ccc(C(F)(F)F)cc1)c1ccccc1 (stereo not given) — 1.6-fold higher, 3.93 µM
- N=C(N)SCc1nc2ccccc2c(=O)n1-c1ccccc1Cl — 5.1-fold higher, 12.5 µM
- C=C1C(=O)C=C[C@]2(C)C[C@@H]3OC(=O)[C@](C)(O)[C@H]3C[C@@H]12 — 4-fold higher, 9.76 µM
- Cc1cc(C)cc(NC(=O)Nc2ccc(-n3ccc(C(F)(F)F)n3)cc2)c1 — 2-fold higher, 4.95 µM
- O=[N+]([O-])c1ccc(S(=O)(=O)CC(CN2CCCCC2)N2CCCCC2)cc1 (stereo not given) — 2.2-fold higher, 5.37 µM
- CC1(C)CC[C@]2(CO)CC[C@]3(C)C(=CCC4[C@@]5(C)CC[C@H](O)[C@@](C)(CO)C5CC[C@]43C)[C@@H]2C1 (stereo not given in full) — 1.6-fold higher, 3.97 µM
- CC(C)=CCc1c(O)cc2c(c1O)C(=O)CC(c1ccc(O)cc1)O2 (stereo not given) — 1.5-fold higher, 3.74 µM
- Cc1ccccc1N1CCN(C(=O)c2ccc(Oc3ccc(C(F)(F)F)cn3)cc2)CC1 — 1.9-fold higher, 4.66 µM
- C=CCCC(=O)Nc1nc(C)c(-c2csc(Nc3cc(OC)ccc3OC)n2)s1 — 2.4-fold lower, 1.02 µM
- Cc1ccnc2c1ccc1c(C)ccnc12 — 2.6-fold lower, 0.937 µM
- O=C(/C=C/c1ccc2c(c1)OCO2)c1c(O)n(CCC2=CCCCC2)c(=O)[nH]c1=O — within 1.5-fold, 1.63 µM
- CCOc1ccc(S(=O)(=O)N2CCN=C2c2ccccc2)cc1 — within 1.5-fold, 3.1 µM
- CC(NC(=O)c1ccc(N2CCNCC2)c([N+](=O)[O-])c1)C12CC3CC(CC(C3)C1)C2 (stereo not given) — 2.7-fold higher, 6.64 µM
- O=C(Nc1ccc(Nc2ccccc2)cc1)c1ccccc1 — 5.6-fold higher, 13.5 µM
- O=C(COCc1cc(-c2ccc3c(c2)OCO3)on1)N1CCN(c2cccc(C(F)(F)F)c2)CC1 — within 1.5-fold, 2.69 µM
- Cc1ccccc1CNc1ccc(C(CC(N)=O)NC(=O)c2ccccc2)cc1[N+](=O)[O-] (stereo not given) — 2.6-fold higher, 6.24 µM
- CCSc1ncc(/C=N/Nc2ccc(Cl)cc2)n1C — 2.8-fold higher, 6.75 µM
- Cc1ccc(NC(=O)c2nc(S(=O)(=O)Cc3ccccc3)ncc2Cl)cc1 — 2.6-fold higher, 6.39 µM
- Cc1ccc(N2C(=O)NC(=O)/C(=C/C=C/c3ccco3)C2=O)cc1 — within 1.5-fold, 3.29 µM
- O=c1/c(=C\c2cccc(O)c2)sc2nc(-c3ccccc3)c(-c3ccccc3)n12 — 2.6-fold higher, 6.21 µM

`Cc1cc(C)c2[nH]c(=O)c(CN(Cc3cccs3)C(=S)NCc3ccco3)cc2c1` was tested, and the AC50 was > 19.5 µM (inactive).
For `CCN(CC(=O)Nc1ccc(NC(C)=O)cc1)C(=O)c1ccccc1CCc1ccccc1`, the AC50 was > 19.5 µM (inactive).
For `O=C(Cc1ccc(Cl)cc1)Nc1ccc2c(c1)C(=O)NC2=O`, the AC50 was > 19.5 µM (inactive).
For `Cc1ccc(/C=C/C(=O)NCC2COc3ccccc3O2)o1` (stereo not given), the AC50 was > 19.5 µM (inactive).
